According to patent publication US12029762B2, “Alkalized organic pharmaceutical or nutraceutical composition” (priority 2009, dated 2024):

Experiment: Strength, stamina and endurance of a training test subject
Assay type: in vivo, human
Experimental: Test subject was administered L-Glutamine HCl (pH 6.0) for 30 days.
Training was three days per week, with 3 days of cardio. Dosage was 500 mg per day the first week and 1000 mg per day for week 2-4.
Test subject was taken off the glutamine HCl (pH 6.0) and administered buffered-Glutamine (pH 12.0) for 30 days. Training was three days per week, with 3 days of cardio. Dosage was 500 mg per day for the 5th week and 1000 mg per day for weeks 6-8.

## Cl.NC(=O)CC[C@H](N)C(=O)O [L-Glutamine HCl]
Week 1, 500 mg per day
  changes to strength, stamina or endurance (in words): No noticeable changes
Week 2-4, 1000 mg per day
  changes to strength, stamina or endurance (in words): No noticeable changes
